Laboratory results from EP1140904B1, “FARNESYL PROTEIN TRANSFERASE INHIBITORS” (SCHERING CORPORATION, priority 1998, dated 2000).
Read-outs that look alike come from different tables or passages of the source.

How the values were obtained:
Human tumor cells = experiment: Soft Agar Assay (anchorage-independent growth, colony count after MTT staining); format: cell-based
Experimental: Anchorage-independent growth is a characteristic of tumorigenic cell lines. Human tumor cells can be suspended in growth medium containing 0.3% agarose and an indicated concentration of a farnesyl transferase inhibitor. The solution can be overlayed onto growth medium solidified with 0.6% agarose containing the same concentration of farnesyl transferase inhibitor as the top layer. After the top layer is solidified, plates can be incubated for 10-16 days at 37°C under 5% CO2 to allow colony outgrowth. After incubation, the colonies can be stained by overlaying the agar with a solution of MTT (3-[4,5-dimethyl-thiazol-2-yl]-2,5-diphenyltetrazolium bromide, Thiazolyl blue) (1 mg/mL in PBS). Colonies can be counted and the IC50's can be determined.

[1] = biological target: farnesyl protein transferase (Homo sapiens, UniProt P49354+P49356); experiment: FPT IC50 (inhibition of farnesyl protein transferase, in vitro enzyme assay); format: biochemical; details: procedures of WO 95/10516
Experimental: FPT IC50 (inhibition of farnesyl protein transferase, in vitro enzyme assay) was determined following the assay procedures described in WO 95/10516, published April 20, 1995. GGPT IC50 (inhibition of geranylgeranyl protein transferase, in vitro enzyme assay), Cell Mat Assay, COS Cell IC50 (Cell-Based Assay), and anti-tumor activity (in vivo anti-tumor studies) could be determined by the assay procedures described in WO 95/10516. The disclosure of WO 95/10516 is incorporated herein by reference thereto.

[2] = colony outgrowth 10-16 days at 37°C under 5% CO2, read-out: Soft Agar IC50

SMILES	IC50 (Human tumor cells; [2])	IC50 [1]	IC50 (Human tumor cells; read-out: Soft Agar IC50)
CC(C)(C)OC(=O)N1CCN(C2c3ccc(Cl)cc3CCc3cc(Br)cnc32)C[C@@H]1C(=O)N1CCCCC1CCn1ccnc1 (stereo partly drawn) [Example 74, 1,1-DIMETHYLETHYL-4-(3-BROMO-8-CHLORO-6,11-DIHYDRO-5H-BENZO[5,6]CYCLOHEPTA[1,2-b]PYRIDIN-11-YL)-2(R)-[[2-[2-(1H-IMIDAZOL-1-YL)ETHYL]-1-PIPERIDINYL]CARBONYL]-1-PIPERAZINECARBOXYLATE]		0.04 to 2.7 nM	0.5 to 30 nM
CC(C)(C)OC(=O)N1CCN([C@H]2c3ccc(Cl)cc3CCc3cc(Br)cnc32)C[C@@H]1C(=O)N1CCCCC1CCn1ccnc1 (stereo partly drawn) [Example 138, 1,1-DIMETHYLETHYL 4-(3-BROMO-8-CHLORO-6,11-DIHYDRO-5H-BENZO[5,6]CYCLOHEPTA[1,2-b]PYRIDIN-11(S)-YL)-2(R)-[[2-[2-(1H-IMIDAZOL-1-YL)ETHYL]-1-PIPERIDINYL]CARBONYL]-1-PIPERAZINECARBOXYLATE]		0.04 to 2.7 nM	0.5 to 30 nM
CC(C)(C)NC(=O)N1CCN(C2c3ccc(Cl)cc3CCc3cc(Br)cnc32)CC1C(=O)N1CCCC(Cn2ccnc2)C1 (stereo not drawn) [Example 16]	0.5 to 30 nM		
CC(C)(C)OC(=O)N1CCN(C2c3ccc(Cl)cc3CCc3cc(Br)cnc32)C[C@@H]1C(=O)N1CCCCC1CCCn1ccnc1 (stereo partly drawn) [Example 145, 1,1-DIMETHYLETHYL 4-(3-BROMO-8-CHLORO-6,11-DIHYDRO-5H-BENZO[5,6]CYCLOHEPTA[1,2-b]PYRIDIN-11-YL)-2(R)-[[2-[3-(1H-IMIDAZOL-1-YL)PROPYL]-1-PIPERIDINYL]CARBONYL]-1-PIPERAZINECARBOXYLATE]		0.04 to 2.7 nM	0.5 to 30 nM
CC(C)(C)OC(=O)N1CCN(C2c3ccc(Cl)cc3CCc3cc(Br)cnc32)CC1C(=O)N1CCCC(Cn2ccnc2)C1 (stereo not drawn) [Example 10]	0.5 to 30 nM		
CC(C)OC(=O)N1CCN(C2c3ccc(Cl)cc3CCc3cc(Br)cnc32)CC1C(=O)N1CCCC(Cn2ccnc2)C1 (stereo not drawn) [Example 14]	0.5 to 30 nM		
CC(C)OC(=O)N1CCN([C@@H]2c3ccc(Cl)cc3CCc3cc(Br)cnc32)C[C@@H]1C(=O)N1CCC[C@H](Cn2ccnc2)C1 [Example 19]	0.5 to 30 nM		
CC(C)(C)NC(=O)N1CCN([C@@H]2c3ccc(Cl)cc3CCc3cc(Br)cnc32)C[C@@H]1C(=O)N1CCC[C@H](Cn2ccnc2)C1 [Example 18]	0.5 to 30 nM		

More lines, main results first:

IC50 (Human tumor cells; [2])	IC50 [1]	SMILES	IC50 (Human tumor cells; read-out: Soft Agar IC50)
0.5 to 30 nM		CC(C)NC(=O)N1CCN([C@@H]2c3ccc(Cl)cc3CCc3cc(Br)cnc32)C[C@@H]1C(=O)N1CCC[C@@H](Cn2ccnc2)C1 [Example 17]	
0.05 to 30 nM	0.04 to 2.7 nM	Cc1cn(CC2CCCN(C(=O)C3CN(C4c5ccc(Cl)cc5CCc5ccc[n+]([O-])c54)CCN3C(=O)OC3CCCCC3)C2)cn1 (stereo not drawn) [Example 387]	
0.05 to 30 nM	0.04 to 2.7 nM	Cc1cn(C[C@@H]2CCCN(C(=O)[C@H]3CN(C4c5ccccc5CCc5ccccc54)CCN3C(=O)OC3CCCCC3)C2)cn1 [Example 414]	
0.5 to 30 nM		O=C(C1CN(C2c3ccc(Cl)cc3CCc3cc(Br)cnc32)CCN1C(=O)OC1CCCCC1)N1CCCC(Cn2ccnc2)C1 (stereo not drawn) [Example 15]	
0.05 to 30 nM	0.04 to 2.7 nM	Cc1cn(CC2CCCN(C(=O)C3CN(C4c5ccc(Cl)cc5CCc5cc(Br)cnc54)CCN3C(=O)Cc3ccc(F)cc3)C2)cn1 (stereo not drawn) [Example 197]	
0.05 to 30 nM	0.04 to 2.7 nM	Cc1cn(CC2CCCN(C(=O)C3CN(C4c5ccc(Cl)cc5CCc5cccnc54)CCN3C(=O)OCC(C)(C)C)C2)cn1 (stereo not drawn) [Example 411]	
